Reference: patent publication US12624127B2, “Chitosan derivatives as antimicrobials and synergistic combinations thereof” (priority 2022, dated 2026)

Assays:
[1] = system: MRSA; test: MIC determination, broth micro dilution; assay type: cell-based; conditions: MRSA USA300; for MIC: Staphylococcus aureus, read-out: MIC of antibiotic alone / without 2,6-DAC
Description: (§1) MIC values were determined using a broth micro dilution method. Bacteria cells were grown overnight at 37° C. in MHB to a mid-log phase (OD600 between 0.4-0.5 for each organism) and diluted in MHB to 10^5 CFU/mL. […] 50 μL of the 1-5×10^5 CFU/mL bacterial cultures (final concentration) was aliquoted into 96-well microtiter plates and mixed with 50 μL of two-fold dilutions of the polymer or antibiotics and incubated for 16-18 h at 37° C. with shaking at 200 rpm.
(§2) 2,6-DAC was screened as a potentiating agent for synergistic combinations with antibiotics against both A. baumannii AB-1 and MRSA USA300. Before the synergy tests, the MIC values of antibiotics were tested against MDR A. baumannii AB-1 and MRSA USA300 by following the MIC determination protocol in Example 4. Then, the synergy of 2,6-DAC with antibiotics was determined.

[2] = system: A. baumannii; test: MIC determination, broth micro dilution; assay type: cell-based, Acinetobacter baumannii; conditions: A. baumannii AB-1, antibiotic alone; for MIC: Acinetobacter baumannii, read-out: MIC of antibiotic without 2,6-DAC
Description: as §1, §2

[3] = system: A. baumannii AB-1; test: Time killing assay; assay type: cell-based, Acinetobacter baumannii; conditions: for Killing of bacteria by single agent (in words): sub-inhibitory concentration, alone, 24 h
Description: The plates were sealed and incubated at 37° C. with shaking at 200 rpm.
At 0, 0.5, 1, 2, 3, 5, and 24 h post-inoculation, each well was thoroughly mixed with a multi-channel pipette and 20 μL of sample was removed, serially diluted in sterile PBS, plated on LB agar plates, and incubated at 37° C. for 12 h. Colonies were counted to determine the CFU/mL at each time point.
(§3) Synergy was measured by time killing assay and checkerboard assay. Time killing assay was performed by following the protocol in Example 4. Checkerboard susceptibility assays to measure combinations of antimicrobials were performed in MHB at 37° C. as previously described (K. R. V. Thappeta et al., ACS Infect. Dis. 2020, 6, 1228-1237; and Z. Si et al., Angew. Chem. Int. Ed. 2020, 59, 6819-6826). The fractional inhibitory concentration (FIC) indices were calculated according to the following formula: […]

[4] = system: A. baumannii AB-1; test: Checkerboard synergy assay of 2,6-DAC with antibiotics; assay type: cell-based, Acinetobacter baumannii; conditions: for Synergy with 2,6-DAC (in words) / MIC, antibiotic in combination: A. baumannii AB-1; for MIC, antibiotic in combination: antibiotic concentration in combination with 2,6-DAC (8 μg/mL); for MIC of antibiotic +16 μg/mL 2,6-DAC / MIC of antibiotic +32 μg/mL 2,6-DAC: A. baumannii AB-1 (MDR)
Description: as §2, §3

[5] = system: MRSA USA300; test: as above; assay type: cell-based; conditions: for MIC, antibiotic in combination: antibiotic concentration in combination with 2,6-DAC
Description: as §2, §3

[6] = system: MDR A. baumannii (AB-1); test: Intraperitoneal infection model in BALB/c mice; assay type: in vivo, Acinetobacter baumannii
Description: Bacterial cultures of MDR A. baumannii (AB-1) were prepared and used to infect 8-week-old female BALB/c mice. 10^6 CFU/mL of AB-1 (300 μL) was injected into the intraperitoneal cavity to introduce the infection. After 2 h of infection, specific dosage of antibiotic (novobiocin or rifampicin, 10 mg/kg), 2,6-DAC (25 mg/kg) or the combination of antibiotic (novobiocin or rifampicin, 10 mg/kg) and 2,6-DAC (25 mg/kg) were injected into the intraperitoneal cavity. PBS was used as a control. Mice euthanasian at the indicated time points (18 h) was achieved by CO2 asphyxiation followed by cervical dislocation. The intraperitoneal fluid, kidney, spleen and liver were recovered, and counted for bacteria concentration. For histopathological analysis, the kidney, spleen and liver were fixed in 10% neutral buffered formalin and embedded in paraffin. The paraffin-embedded sections were stained with H&E. The animal studies were carried out in accordance to protocol (A20029) approved by the NTU Institutional Animal Care and Use Committee (NTU-IACUC).

CO[C@@H]1[C@@H](OC(N)=O)[C@@H](O)[C@H](Oc2ccc3c(O)c(NC(=O)c4ccc(O)c(CC=C(C)C)c4)c(=O)oc3c2C)OC1(C)C [Novobiocin]
MIC [1]: 0.125 mg/L
MIC [2]: 8 mg/L
Bacteria killing, combination with 2,6-DAC ([3]; 2,6-DAC 0.25×MIC + novobiocin 0.125 to 0.25×MIC): 4 log10
Killing of bacteria by single agent (in words) [3]: no killing of bacteria
Synergy with 2,6-DAC (in words) [4]: synergistic activity
MIC, antibiotic in combination [4]: 0.5 mg/L
MIC, antibiotic in combination [5]: 0.03125 mg/L
Histology of liver, spleen and kidney, combination treatment (in words) ([6]; 2,6-DAC + novobiocin, H&E): significantly alleviated these tissue abnormalities
Histology of liver, spleen and kidney, individual treatment (in words) ([6]; alone, H&E, vs infection control): did not improve the tissue appearance
Efficacy of single agent in intraperitoneal fluid and distal organs (in words) ([6]; alone: 2,6-DAC 25 mg/kg or novobiocin 10 mg/kg, i.p., 18 h): ineffective

CC(=O)OCC1=C(C(=O)O)N2C(=O)[C@@H](NC(=O)Cc3cccs3)[C@H]2SC1 [Cephalothins]
MIC of antibiotic without 2,6-DAC [2]: >128 mg/L
MIC of antibiotic +16 μg/mL 2,6-DAC [4]: 128 mg/L
MIC of antibiotic +32 μg/mL 2,6-DAC [4]: 2 mg/L

COc1cc(Cc2cnc(N)nc2N)cc(OC)c1OC [Trimethoprim]
Synergy with 2,6-DAC (in words) [5]: no synergy

Polymyxin B
MIC of antibiotic alone / without 2,6-DAC [1]: 32 mg/L
Synergy with 2,6-DAC (in words) [5]: no synergy

C[C@H]1COc2c(N3CCN(C)CC3)c(F)cc3c(=O)c(C(=O)O)cn1c23 [Levofloxacin]
MIC [2]: 4 mg/L
MIC of antibiotic +16 μg/mL 2,6-DAC [4]: 2 mg/L
MIC of antibiotic +32 μg/mL 2,6-DAC [4]: ≤1 mg/L

O=C(N[C@H](CO)[C@H](O)c1ccc([N+](=O)[O-])cc1)C(Cl)Cl [Chloramphenicol]
MIC [1]: 4 mg/L
Synergy with 2,6-DAC (in words) [5]: no synergy

CCN1CCN(C(=O)N[C@@H](C(=O)N[C@@H]2C(=O)N3[C@@H]2SC(C)(C)[C@@H]3C(=O)O)c2ccccc2)C(=O)C1=O [Piperacillin]
MIC [1]: 4 mg/L
Synergy with 2,6-DAC (in words) [5]: no synergy

CO[C@@]1(NC(=O)Cc2cccs2)C(=O)N2C(C(=O)O)=C(COC(N)=O)CS[C@@H]21 [Cefoxitin]
MIC [2]: > 128 mg/L
MIC of antibiotic +16 μg/mL 2,6-DAC [4]: 128 mg/L
MIC of antibiotic +32 μg/mL 2,6-DAC [4]: 8 mg/L

Ramoplanin
MIC of antibiotic without 2,6-DAC [2]: >128 mg/L
MIC of antibiotic +16 μg/mL 2,6-DAC [4]: 128 mg/L
MIC of antibiotic +32 μg/mL 2,6-DAC [4]: 2 mg/L

CC1COc2c(N3CCN(C)CC3)c(F)cc3c(=O)c(C(=O)O)cn1c23 (stereo not shown) [Ofloxacin]
MIC [2]: 8 mg/L
MIC of antibiotic +16 μg/mL 2,6-DAC [4]: 8 mg/L
MIC of antibiotic +32 μg/mL 2,6-DAC [4]: 4 mg/L

C[C@]1(Cn2ccnn2)[C@H](C(=O)O)N2C(=O)C[C@H]2S1(=O)=O [Tazobactam]
MIC [2]: 64 mg/L
Bactericidal efficacy, combination with 2,6-DAC ([3]; 2,6-DAC 0.5×MIC + tazobactam 0.06×MIC): 4 log10
Killing of bacteria by single agent (in words) [3]: no killing of bacteria
Synergy with 2,6-DAC (in words) [4]: synergistic activity
MIC, antibiotic in combination [4]: 16 mg/L

NCC[C@H](O)C(=O)N[C@@H]1C[C@H](N)[C@@H](O[C@H]2O[C@H](CN)[C@@H](O)[C@H](O)[C@H]2O)[C@H](O)[C@H]1O[C@H]1O[C@H](CO)[C@@H](O)[C@H](N)[C@H]1O [Amikacin]
MIC [1]: 1.56 mg/L
MIC of antibiotic without 2,6-DAC [2]: >128 mg/L
MIC [2]: > 128 mg/L
Bactericidal efficacy, combination with 2,6-DAC ([3]; 2,6-DAC 0.5×MIC + amikacin 0.002×MIC): 4 log10
Killing of bacteria by single agent (in words) [3]: no killing of bacteria
Synergy with 2,6-DAC (in words) [4]: synergistic activity
MIC, antibiotic in combination [4]: 2 mg/L
Synergy with 2,6-DAC (in words) [5]: no synergy

CC(C)(O/N=C(\C(=O)N[C@@H]1C(=O)N2C(C(=O)[O-])=C(C[n+]3ccccc3)CS[C@H]12)c1csc(N)n1)C(=O)O [Ceftazidime]
MIC [1]: 16 mg/L
MIC [2]: > 128 mg/L
MIC of antibiotic +16 μg/mL 2,6-DAC [4]: 128 mg/L
MIC of antibiotic +32 μg/mL 2,6-DAC [4]: 2 mg/L
Synergy with 2,6-DAC (in words) [5]: no synergy

Colistin
MIC of antibiotic alone / without 2,6-DAC [1]: 50 mg/L
Synergy with 2,6-DAC (in words) [5]: no synergy

C[C@@H](O)[C@H]1C(=O)N2C(C(=O)O)=C(S[C@@H]3CN[C@H](C(=O)N(C)C)C3)[C@H](C)[C@H]12 [Meropenem]
MIC [1]: 1 mg/L
MIC [2]: 64 mg/L
MIC of antibiotic +16 μg/mL 2,6-DAC [4]: 4 mg/L
MIC of antibiotic +32 μg/mL 2,6-DAC [4]: 1 mg/L
MIC, antibiotic in combination [5]: 0.5 mg/L

CC[C@H]1OC(=O)[C@H](C)[C@@H](O[C@H]2C[C@@](C)(OC)[C@@H](O)[C@H](C)O2)[C@H](C)[C@@H](O[C@@H]2O[C@H](C)C[C@H](N(C)C)[C@H]2O)[C@](C)(O)C[C@@H](C)C(=O)[C@H](C)[C@@H](O)[C@]1(C)O [Erythromycin]
MIC [2]: > 128 mg/L
MIC of antibiotic +16 μg/mL 2,6-DAC [4]: 64 mg/L
MIC of antibiotic +32 μg/mL 2,6-DAC [4]: 4 mg/L

CC1(C)S[C@@H]2[C@H](NC(=O)[C@H](N)c3ccccc3)C(=O)N2[C@H]1C(=O)O [Ampicillin]
MIC [1]: 4 mg/L
MIC, antibiotic in combination [5]: 2 mg/L

CC[C@H]1OC(=O)[C@H](C)[C@@H](O[C@H]2C[C@@](C)(OC)[C@@H](O)[C@H](C)O2)[C@H](C)[C@@H](O[C@@H]2O[C@H](C)C[C@H](N(C)C)[C@H]2O)[C@](C)(O)C[C@@H](C)CN(C)[C@H](C)[C@@H](O)[C@]1(C)O [Azithromycin]
MIC [2]: 128 mg/L
MIC of antibiotic +16 μg/mL 2,6-DAC [4]: 64 mg/L
MIC of antibiotic +32 μg/mL 2,6-DAC [4]: 1 mg/L

CC1(C)S[C@@H]2[C@H](NC(=O)C(C(=O)O)c3ccccc3)C(=O)N2[C@H]1C(=O)O (stereo partly shown) [Carbenicillin]
MIC [1]: 8 mg/L
MIC, antibiotic in combination [5]: 2 mg/L

O=C(O)c1cn(C2CC2)c2cc(N3CCNCC3)c(F)cc2c1=O [Ciprofloxacin]
MIC [1]: 8 mg/L
Synergy with 2,6-DAC (in words) [5]: no synergy

CO/N=C(\C(=O)N[C@@H]1C(=O)N2C(C(=O)O)=C(CSc3nc(=O)c(=O)[nH]n3C)CS[C@H]12)c1csc(N)n1 [Ceftriaxone]
MIC [1]: 16 mg/L
MIC [2]: > 128 mg/L
MIC of antibiotic +16 μg/mL 2,6-DAC [4]: 128 mg/L
MIC of antibiotic +32 μg/mL 2,6-DAC [4]: 2 mg/L
Synergy with 2,6-DAC (in words) [5]: no synergy

C[C@@H](O)[C@H]1C(=O)N2C(C(=O)O)=C(SCCN=CN)C[C@H]12 [Imipenem]
MIC [2]: 64 mg/L
MIC of antibiotic +16 μg/mL 2,6-DAC [4]: 8 mg/L
MIC of antibiotic +32 μg/mL 2,6-DAC [4]: 1 mg/L

NC[C@H]1O[C@H](O[C@H]2[C@H](O)[C@@H](O[C@H]3O[C@H](CO)[C@@H](O)[C@H](N)[C@H]3O)[C@H](N)C[C@@H]2N)[C@H](N)C[C@@H]1O [Tobramycin]
MIC [1]: 1 mg/L
MIC of antibiotic without 2,6-DAC [2]: >128 mg/L
MIC [2]: > 128 mg/L
Reduction, combination with 2,6-DAC ([3]; 2,6-DAC 0.5×MIC + tobramycin 0.002×MIC): 2 log10
Killing of bacteria by single agent (in words) [3]: no killing of bacteria
Synergy with 2,6-DAC (in words) [4]: synergistic activity
MIC, antibiotic in combination [4]: 2 mg/L
MIC, antibiotic in combination [5]: 0.25 mg/L

C[C@@H](O)[C@H]1C(=O)N2C(C(=O)O)=C(S[C@@H]3CN[C@H](CNS(N)(=O)=O)C3)[C@H](C)[C@H]12 [Doripenem]
MIC [2]: 32 mg/L
MIC of antibiotic +16 μg/mL 2,6-DAC [4]: 4 mg/L
MIC of antibiotic +32 μg/mL 2,6-DAC [4]: ≤2 mg/L

CC1(C)S[C@@H]2[C@H](NC(=O)[C@H](N)c3ccc(O)cc3)C(=O)N2[C@H]1C(=O)O [Amoxicillin]
MIC [2]: > 128 mg/L
MIC of antibiotic +16 μg/mL 2,6-DAC [4]: 128 mg/L
MIC of antibiotic +32 μg/mL 2,6-DAC [4]: 16 mg/L

C[C@@H](O)[C@H]1C(=O)N2C(C(=O)O)=C(S[C@@H]3CN[C@H](C(=O)Nc4cccc(C(=O)O)c4)C3)[C@H](C)[C@H]12 [Ertapenem]
MIC [2]: > 128 mg/L
MIC of antibiotic +16 μg/mL 2,6-DAC [4]: 4 mg/L
MIC of antibiotic +32 μg/mL 2,6-DAC [4]: 2 mg/L
